From the supplement of paper PMC10307832

Experiments:
Test in all cases: relative viability (nuclei count vs DMSO), 5 days (fraction); higher = more cells survive
[1] = compound: O[C@@H](COc1cccc2ncccc12)CN1CCN([C@@H]2c3ccccc3[C@@H]3[C@H](c4ccccc42)C3(F)F)CC1 [Zosuquidar] + CCNC(=O)c1noc(-c2cc(C(C)C)c(O)cc2O)c1-c1ccc(CN2CCOCC2)cc1 [Luminespib] (partner 0.01 µM)
Procedure, shortened: (§1)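 Cells from lung cancer lines were seeded into 1536-well plates and, one day later, dosed by pin tool. Treatments were either a single drug or a fixed dose of an anchor drug with five library-drug doses (not always all listed) in √10 steps. After 5 days, nuclei were stained in a one-step fixation (final 0.05% Triton X-100, 1% formaldehyde, 1 ug/ml Hoechst) and counted on 4× images, and relative viability is the treated-to-vehicle nuclei ratio, as the median of duplicate plates.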

[2] = compound: C1=CC(=CC=C1NC(=S)NNC2=C(C=C(C=C2[N+](=O)[O-])C(F)(F)F)[N+](=O)[O-])F [Kobe2602] + Cc1nc(Nc2ncc(C(=O)Nc3c(C)cccc3Cl)s2)cc(N2CCN(CCO)CC2)n1 [Dasatinib] (partner 0.075 µM)
Procedure, shortened: as §1

[3] = compound: O[C@@H](COc1cccc2ncccc12)CN1CCN([C@@H]2c3ccccc3[C@@H]3[C@H](c4ccccc42)C3(F)F)CC1 [Zosuquidar] + CS(=O)(=O)CCNCc1ccc(-c2ccc3ncnc(Nc4ccc(OCc5cccc(F)c5)c(Cl)c4)c3c2)o1 [Lapatinib] (partner 2 µM)
Procedure, shortened: as §1

[4] = compound: COc1cc2nccc(Oc3ccc(NC(=O)C4(C(=O)Nc5ccc(F)cc5)CC4)cc3)c2cc1OC [Cabozantinib] + CS(=O)(=O)N1CCN(Cc2cc3nc(-c4cccc5[nH]ncc45)nc(N4CCOCC4)c3s2)CC1 [Pictilisib] (partner 1 µM)
Procedure, shortened: as §1

| Cell Line | relative viability ([1]; first compound 0.01 µM) | relative viability ([1]; first compound 0.03162 µM) | relative viability ([1]; first compound 0.1 µM) | relative viability ([1]; first compound 0.3162 µM) | relative viability ([1]; first compound 1 µM) | relative viability ([2]; first compound 0.2 µM) | relative viability ([2]; first compound 0.6325 µM) | relative viability ([2]; first compound 2 µM) | relative viability ([2]; first compound 6.325 µM) | relative viability ([2]; first compound 20 µM) | relative viability ([3]; first compound 0.01 µM) | relative viability ([3]; first compound 0.03162 µM) | relative viability ([3]; first compound 0.3162 µM) | relative viability ([3]; first compound 1 µM) | relative viability ([4]; first compound 0.02 µM) | relative viability ([4]; first compound 0.06325 µM) | relative viability ([4]; first compound 0.2 µM) | relative viability ([4]; first compound 0.6325 µM) | relative viability ([4]; first compound 2 µM) | relative viability ([3]; first compound 0.1 µM) |
| --- | --- | --- | --- | --- | --- | --- | --- | --- | --- | --- | --- | --- | --- | --- | --- | --- | --- | --- | --- | --- |
| NCI-H650 | 0.96 | 0.764 | 0.809 | 0.777 | 0.904 | 0.429 | 0.564 | 0.501 | 0.517 | 0.5 | 0.845 | 0.879 | 1.49 | 0.881 | 0.765 | 1.02 | 1.02 | 0.774 | 0.868 |  |
| NCI-H1734 | 0.222 | 0.251 | 0.182 | 0.187 | 0.184 | 0.425 | 0.543 | 0.432 | 0.478 | 0.468 | 1.03 | 1.02 | 1.07 | 1.13 | 0.417 | 0.414 | 0.472 | 0.453 | 0.434 | 1.1 |
| LOU-NH91 | 0.331 | 0.317 |  | 0.343 | 0.355 | 0.506 | 0.596 | 0.476 | 0.535 | 0.617 | 0.717 | 0.851 | 0.942 | 0.751 | 0.494 | 0.541 | 0.476 | 0.485 | 0.513 | 0.701 |
| SK-MES-1 | 0.72 | 0.732 | 0.732 | 0.881 | 0.938 | 0.368 | 0.489 | 0.4 | 0.415 | 0.305 | 0.448 | 0.401 | 0.495 | 0.517 | 0.357 | 0.391 | 0.335 | 0.386 | 0.322 | 0.445 |
| NCI-H2170 | 0.663 | 0.716 | 0.599 | 0.92 | 0.582 | 0.632 | 0.544 | 0.496 | 0.558 | 0.592 | 0.256 | 0.282 | 0.308 | 0.283 | 0.259 | 0.321 | 0.274 | 0.376 | 0.296 | 0.256 |
